Measured values published in US20060110451A1, “Formulations of [1,4]diazepino[6,7,1-IJ]quinoline derivatives” (priority 2004, published 2006).
Where two headings read alike, the source gives them in different places.

Experiments:
[1] = Single ascending dose study; type: in vivo; conditions: single oral doses of 500 mg
5-HT2C = molecular target: T1, 5-HT2C (Homo sapiens, UniProt P28335); conditions: cited from earlier work
T1 sequence (P28335 33-458): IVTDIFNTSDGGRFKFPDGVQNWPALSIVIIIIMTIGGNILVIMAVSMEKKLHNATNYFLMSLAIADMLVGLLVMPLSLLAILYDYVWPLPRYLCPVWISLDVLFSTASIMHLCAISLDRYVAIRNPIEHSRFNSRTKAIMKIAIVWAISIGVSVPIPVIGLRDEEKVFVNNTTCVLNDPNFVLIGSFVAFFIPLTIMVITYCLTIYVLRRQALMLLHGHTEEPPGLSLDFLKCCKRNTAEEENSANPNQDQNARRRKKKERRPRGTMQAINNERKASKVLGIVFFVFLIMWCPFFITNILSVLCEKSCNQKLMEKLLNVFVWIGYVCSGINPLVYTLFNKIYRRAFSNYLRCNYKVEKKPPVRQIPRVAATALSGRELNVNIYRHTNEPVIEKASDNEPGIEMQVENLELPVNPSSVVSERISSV

[2] = Early toxicology testing in dogs; type: in vivo; conditions: oral suspension
Text: Enteric-coated capsules were developed which delayed the release of the drug. […] For human clinical studies, enteric-coated pellets were developed which provided advantages over enteric-coated capsules for dose flexibility and more uniform release in the intestinal tract.

[3] = Ascending multiple dose pharmacokinetics of enteric coated capsules in schizophrenic patients; type: in vivo, human; conditions: for Tmax / half-life / AUC(0-t) / Cmax / AUC(0-inf): plasma
Experimental: Ascending multiple doses of 100, 150, and 250 mg Compound A.HCl were administered as twice-daily regimen (q12h) for 10 days in cohorts of 8 schizophrenic patients (6 active and 2 placebo). Blood samples for Compound A.HCl analysis were obtained on day 1 within 2 hours of test article administration and at various time points from 0.5 to 24 hours after test article administration. On day 10, blood samples were collected up to 12 hours after dose administration. Doses were administered orally after an overnight fast of at least 10 hours on these 2 days. Trough PK samples were collected on days 6, 8, and 9 to assess whether steady-state has been reached.
FIGS. 7A and 7B show the relationship between Cmax vs. dose and AUC vs. dose, respectively.

Cl.c1cc2c3c(c1)[C@H]1CCC[C@H]1CN3CCNC2 [Compound A.HCl, (9aR,12aS)-4,5,6,7,9,9a,10,11,12,12a-decahydrocyclopenta[c][1,4]diazepino[6,7,1-ij]quinoline hydrochloride]
dose proportionality of exposure [1]: signs of nonlinearity | 5-HT2C agonist activity (5-HT2C): potent 5-HT2C agonist | reaction noted in toxicology testing [2]: emetic reaction | relationship between dose and exposure ([3]; after excluding 2 outlier patients): approximately linear | difference in Tmax or t1/2 ([3]; at the 250 mg q12h dose level): no significant difference | differences in pharmacokinetics between healthy subjects and schizophrenic patients ([3]; human, in vivo): No significant differences | Tmax ([3]; human, oral, schizophrenic patients, single and multiple dose administration, enteric-coated formulation, read-out: mean Tmax): 4 to 5 h | half-life ([3]; human, oral, schizophrenic patients, single dose administration, read-out: mean elimination t1/2): 480 to 600 min | AUC(0-t) ([3]; human, po, 100 mg, Schizophrenia patients, multiple oral doses (q12 h) 100 mg, day 10, read-out: AUCss (AUC0-12) (Geom. Mean)): 31.2 ng·h/mL | AUC(0-t) ([3]; human, po, 100 mg, Schizophrenia patients, multiple oral doses (q12 h) 100 mg, day 10, read-out: AUCss (AUC0-12) (Mean)): ~33.2 ng·h/mL | Cmax ([3]; human, po, 100 mg, Schizophrenia patients, multiple oral doses (q12 h) 100 mg, day 10, read-out: Cmax (Geom. Mean)): 3.82 ng/mL | Cmax ([3]; human, po, 100 mg, Schizophrenia patients, multiple oral doses (q12 h) 100 mg, day 10, read-out: Cmax (Mean)): 4 ng/mL | Tmax ([3]; human, po, 100 mg, Schizophrenia patients, multiple oral doses (q12 h) 100 mg, day 10, read-out: Tmax (Geom. Mean)): 4.6 h | Tmax ([3]; human, po, 100 mg, Schizophrenia patients, multiple oral doses (q12 h) 100 mg, day 10, read-out: Tmax (Mean)): 4.8 h | AUC(0-inf) ([3]; human, po, 100 mg, Schizophrenia patients, single oral dose 100 mg, day 1, read-out: AUC0-∞ (Geom. Mean)): 27.1 ng·h/mL | AUC(0-inf) ([3]; human, po, 100 mg, Schizophrenia patients, single oral dose 100 mg, day 1, read-out: AUC0-∞ (Mean)): 30.6 ng·h/mL | Cmax ([3]; human, po, 100 mg, Schizophrenia patients, single oral dose 100 mg, day 1, read-out: Cmax (Geom. Mean)): 2.07 ng/mL | Cmax ([3]; human, po, 100 mg, Schizophrenia patients, single oral dose 100 mg, day 1, read-out: Cmax (Mean)): 2.21 ng/mL | Tmax ([3]; human, po, 100 mg, Schizophrenia patients, single oral dose 100 mg, day 1, read-out: Tmax (Geom. Mean)): 4.7 h | Tmax ([3]; human, po, 100 mg, Schizophrenia patients, single oral dose 100 mg, day 1, read-out: Tmax (Mean)): 4.8 h | half-life ([3]; human, po, 100 mg, Schizophrenia patients, single oral dose 100 mg, day 1, read-out: t1/2 (Geom. Mean) (converted)): 520 min | half-life ([3]; human, po, 100 mg, Schizophrenia patients, single oral dose 100 mg, day 1, read-out: t1/2 (Mean) (converted)): 536 min | AUC(0-t) ([3]; human, po, 150 mg, Schizophrenia patients, multiple oral doses (q12 h) 150 mg, day 10, read-out: AUCss (AUC0-12) (Geom. Mean)): 51.3 ng·h/mL | AUC(0-t) ([3]; human, po, 150 mg, Schizophrenia patients, multiple oral doses (q12 h) 150 mg, day 10, read-out: AUCss (AUC0-12) (Mean)): ~54.9 ng·h/mL | Cmax ([3]; human, po, 150 mg, Schizophrenia patients, multiple oral doses (q12 h) 150 mg, day 10, read-out: Cmax (Geom. Mean)): 6.67 ng/mL | Cmax ([3]; human, po, 150 mg, Schizophrenia patients, multiple oral doses (q12 h) 150 mg, day 10, read-out: Cmax (Mean)): 7.21 ng/mL | Tmax ([3]; human, po, 150 mg, Schizophrenia patients, multiple oral doses (q12 h) 150 mg, day 10, read-out: Tmax (Geom. Mean)): 4.2 h | Tmax ([3]; human, po, 150 mg, Schizophrenia patients, multiple oral doses (q12 h) 150 mg, day 10, read-out: Tmax (Mean)): 4.3 h | AUC(0-inf) ([3]; human, po, 150 mg, Schizophrenia patients, single oral dose 150 mg, day 1, read-out: AUC0-∞ (Geom. Mean)): 34 ng·h/mL | AUC(0-inf) ([3]; human, po, 150 mg, Schizophrenia patients, single oral dose 150 mg, day 1, read-out: AUC0-∞ (Mean)): 35.6 ng·h/mL | Cmax ([3]; human, po, 150 mg, Schizophrenia patients, single oral dose 150 mg, day 1, read-out: Cmax (Geom. Mean)): 3.09 ng/mL | Cmax ([3]; human, po, 150 mg, Schizophrenia patients, single oral dose 150 mg, day 1, read-out: Cmax (Mean)): 3.37 ng/mL | Tmax ([3]; human, po, 150 mg, Schizophrenia patients, single oral dose 150 mg, day 1, read-out: Tmax (Geom. Mean)): 4.2 h | Tmax ([3]; human, po, 150 mg, Schizophrenia patients, single oral dose 150 mg, day 1, read-out: Tmax (Mean)): 4.6 h | half-life ([3]; human, po, 150 mg, Schizophrenia patients, single oral dose 150 mg, day 1, read-out: t1/2 (Geom. Mean) (converted)): 555 min | half-life ([3]; human, po, 150 mg, Schizophrenia patients, single oral dose 150 mg, day 1, read-out: t1/2 (Mean) (converted)): 569 min | AUC(0-t) ([3]; human, po, 250 mg, Schizophrenia patients, multiple oral doses (q12 h) 250 mg, day 10, read-out: AUCss (AUC0-12) (Geom. Mean)): 134 ng·h/mL | AUC(0-t) ([3]; human, po, 250 mg, Schizophrenia patients, multiple oral doses (q12 h) 250 mg, day 10, read-out: AUCss (AUC0-12) (Mean)): ~173 ng·h/mL | Cmax ([3]; human, po, 250 mg, Schizophrenia patients, multiple oral doses (q12 h) 250 mg, day 10, read-out: Cmax (Geom. Mean)): 15.9 ng/mL | Cmax ([3]; human, po, 250 mg, Schizophrenia patients, multiple oral doses (q12 h) 250 mg, day 10, read-out: Cmax (Mean)): 20.6 ng/mL | Tmax ([3]; human, po, 250 mg, Schizophrenia patients, multiple oral doses (q12 h) 250 mg, day 10, read-out: Tmax (Mean)): 4.8 h | AUC(0-inf) ([3]; human, po, 250 mg, Schizophrenia patients, single oral dose 250 mg, day 1, read-out: AUC0-∞ (Geom. Mean)): 76.1 ng·h/mL | AUC(0-inf) ([3]; human, po, 250 mg, Schizophrenia patients, single oral dose 250 mg, day 1, read-out: AUC0-∞ (Mean)): 109 ng·h/mL | Cmax ([3]; human, po, 250 mg, Schizophrenia patients, single oral dose 250 mg, day 1, read-out: Cmax (Geom. Mean)): 5.71 ng/mL | Cmax ([3]; human, po, 250 mg, Schizophrenia patients, single oral dose 250 mg, day 1, read-out: Cmax (Mean)): 8.89 ng/mL | Tmax ([3]; human, po, 250 mg, Schizophrenia patients, single oral dose 250 mg, day 1, read-out: Tmax (Geom. Mean)): 4.7 h | Tmax ([3]; human, po, 250 mg, Schizophrenia patients, single oral dose 250 mg, day 1, read-out: Tmax (Mean)): 5 h | half-life ([3]; human, po, 250 mg, Schizophrenia patients, single oral dose 250 mg, day 1, read-out: t1/2 (Geom. Mean) (converted)): 464 min | half-life ([3]; human, po, 250 mg, Schizophrenia patients, single oral dose 250 mg, day 1, read-out: t1/2 (Mean) (converted)): 482 min
